Reference: patent publication US11713338B2, “Cyclic peptides multimers targeting α-4-β-7 integrin” (priority 2016, dated 2023)

Target: T1, recombinant integrin α4β7 (Homo sapiens, UniProt P13612+P26010, DEL724-798)
T1 construct: purchased R&D Systems 5397-A3-050
T1 sequence (P13612 34-970 limits assumed): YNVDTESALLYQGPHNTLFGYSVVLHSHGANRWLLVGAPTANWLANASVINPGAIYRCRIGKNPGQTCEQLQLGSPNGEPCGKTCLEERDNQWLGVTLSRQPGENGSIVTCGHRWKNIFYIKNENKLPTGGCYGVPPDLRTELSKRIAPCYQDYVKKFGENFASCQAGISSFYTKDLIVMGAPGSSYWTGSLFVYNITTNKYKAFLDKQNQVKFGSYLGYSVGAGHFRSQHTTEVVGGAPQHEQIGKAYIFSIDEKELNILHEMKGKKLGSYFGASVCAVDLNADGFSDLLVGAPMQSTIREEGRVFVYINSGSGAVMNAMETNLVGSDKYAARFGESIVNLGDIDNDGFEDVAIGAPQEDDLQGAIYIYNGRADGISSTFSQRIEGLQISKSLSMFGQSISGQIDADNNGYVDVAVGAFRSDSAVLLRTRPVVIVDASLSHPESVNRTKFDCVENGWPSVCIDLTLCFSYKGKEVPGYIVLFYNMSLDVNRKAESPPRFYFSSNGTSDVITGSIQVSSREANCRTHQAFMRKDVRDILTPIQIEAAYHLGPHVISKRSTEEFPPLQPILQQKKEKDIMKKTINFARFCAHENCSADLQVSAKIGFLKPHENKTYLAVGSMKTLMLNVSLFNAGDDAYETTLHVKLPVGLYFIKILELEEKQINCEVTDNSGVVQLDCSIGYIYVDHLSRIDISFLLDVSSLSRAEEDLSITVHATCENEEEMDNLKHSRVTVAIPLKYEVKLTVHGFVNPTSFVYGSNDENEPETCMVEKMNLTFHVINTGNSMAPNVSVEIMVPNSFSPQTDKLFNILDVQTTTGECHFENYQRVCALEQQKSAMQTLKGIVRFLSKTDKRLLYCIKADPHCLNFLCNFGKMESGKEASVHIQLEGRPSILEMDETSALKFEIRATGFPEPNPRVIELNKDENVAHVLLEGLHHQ
T1 sequence (P26010 20-723 limits assumed): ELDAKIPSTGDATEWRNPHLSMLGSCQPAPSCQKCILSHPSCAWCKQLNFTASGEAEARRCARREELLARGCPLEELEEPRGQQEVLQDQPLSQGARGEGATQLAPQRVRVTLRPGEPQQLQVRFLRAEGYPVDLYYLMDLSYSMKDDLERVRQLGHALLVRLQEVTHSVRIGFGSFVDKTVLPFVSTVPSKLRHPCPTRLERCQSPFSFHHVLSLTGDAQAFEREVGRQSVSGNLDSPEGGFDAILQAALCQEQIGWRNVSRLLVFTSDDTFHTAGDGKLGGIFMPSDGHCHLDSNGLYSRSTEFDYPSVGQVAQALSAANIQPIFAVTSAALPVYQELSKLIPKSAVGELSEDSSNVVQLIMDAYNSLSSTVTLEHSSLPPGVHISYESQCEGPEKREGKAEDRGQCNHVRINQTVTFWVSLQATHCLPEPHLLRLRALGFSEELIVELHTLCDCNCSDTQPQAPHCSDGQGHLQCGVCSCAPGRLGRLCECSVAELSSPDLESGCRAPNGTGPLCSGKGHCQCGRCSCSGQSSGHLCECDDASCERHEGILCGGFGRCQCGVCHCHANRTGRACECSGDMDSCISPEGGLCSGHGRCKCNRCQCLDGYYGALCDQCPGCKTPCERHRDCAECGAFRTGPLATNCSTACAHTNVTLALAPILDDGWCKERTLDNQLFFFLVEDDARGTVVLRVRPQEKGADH
Assay: Integrin α4β7—MAdCAM-1 ELISA competition assay
Format: binding
Settings: for IC50: read-out: ELISA a4b7 Assay IC50; for ELISA Assay Ratio b1/b7: ratio of a4b1 to a4b7 ELISA IC50
Protocol: Integrin α4β7—MAdCAM-1 ELISA Competition Assay
The plate was incubated at 40C overnight. […] The plate was then incubated for 1 hour at room temperature. The plate was washed three times with wash buffer (50 mM Tris, 100 mM NaCl, 1 mM MnCl2, 0.05% Tween). To each well, 50 μl of compound diluted in assay buffer was added by transfer from a compound serial dilution plate. […] The plate was incubated at room temperature with shaking (300 rpm) for 2 hours to reach binding equilibrium. […] The plate was incubated at room temperature for 1 hour under agitation.

SMILES: CC(C)C[C@@H]1NC(=O)[C@H](Cc2ccc(-c3ccccc3)cc2)NC(=O)[C@@H]2CCCN2[C@H](C(=O)NC(C)(C)C)[C@H](C)NC(=O)[C@H]([C@@H](C)OCc2ccccc2)NC(=O)[C@H](CC(=O)O)NC1=O [Compound 18]
- IC50: 120 nM

SMILES: CC(C)C[C@@H]1NC(=O)[C@H](Cc2ccc(O)cc2)NC(=O)[C@@H]2CCCN2C(C(=O)NC(C)(C)C)C(CSc2ccccc2)NC(=O)[C@H](C(C)C)NC(=O)[C@H](CC(=O)O)NC1=O (some centres unmarked) [Compound 1]
- ELISA Assay Ratio b1/b7: 0.988

SMILES: CC(C)C[C@@H]1NC(=O)C[C@H](CCCCN)NC(=O)[C@H](Cc2ccc(-c3ccccc3OC(F)(F)F)cc2)NC(=O)[C@@H]2CCCN2[C@H](C(=O)NC(C)(C)C)[C@H](C)NC(=O)[C@H]([C@@H](C)O)NC(=O)[C@H](CC(=O)O)NC1=O [Compound 262]
- IC50: 80 nM

SMILES: CC[C@H](C)[C@@H]1NC(=O)[C@H](CC(=O)O)NC(=O)[C@H](CC(C)C)NC(=O)C[C@@H](CCCCN)NC(=O)[C@H](Cc2ccccc2)NC(=O)[C@@H]2CCCN2[C@H](C(=O)NC(C)(C)C)[C@H](C)NC1=O [Compound 220]
- ELISA Assay Ratio b1/b7: 18.2
- IC50: 96 nM

SMILES: CC(C)C[C@@H]1NC(=O)[C@H]2CCCCN2C(=O)[C@@H](Cc2cccc(-c3cccc4ncccc34)c2)NC(=O)[C@@H]2CCCN2[C@H](C(=O)NC(C)(C)C)[C@H](C)NC(=O)[C@H]([C@@H](C)O)NC(=O)[C@H](CC(=O)O)NC1=O [Compound 192]
- IC50: 118 nM

SMILES: CC(C)C[C@@H]1NC(=O)[C@H]2C[C@H](O)CN2C(=O)[C@H](Cc2ccc(O)cc2)NC(=O)[C@@H]2CCCN2[C@H](C(=O)NC(C)(C)C)[C@H](C)NC(=O)[C@H]([C@@H](C)O)NC(=O)[C@H](CC(=O)O)NC1=O [Compound 140]
- ELISA Assay Ratio b1/b7: 9.6
- IC50: 53 nM

SMILES: CC(C)C[C@@H]1NC(=O)c2ccc(N3CCOCC3)c(c2)CNC(=O)[C@@H]2CCCN2[C@H](C(=O)NC(C)(C)C)[C@H](C)NC(=O)[C@H]([C@@H](C)O)NC(=O)[C@H](CC(=O)O)NC1=O [Compound 379]
- ELISA Assay Ratio b1/b7: 4.9
- IC50: 33 nM

SMILES: CC(C)C[C@@H]1NC(=O)[C@H](Cc2ccncc2)NC(=O)[C@@H]2CCCN2[C@H](C(=O)NC(C)(C)C)[C@H](C)NC(=O)[C@H]([C@@H](C)O)NC(=O)[C@H](CC(=O)O)NC1=O [Compound 54]
- IC50: 190 nM

SMILES: CCCC[C@H]1NC(=O)[C@H](Cc2ccc(O)cc2)NC(=O)[C@@H]2CCCN2[C@H](C(=O)NC(C)(C)C)[C@H](C)NC(=O)[C@H]([C@@H](C)O)NC(=O)[C@H](CC(=O)O)NC(=O)[C@H](CC(C)C)NC1=O [Compound 155]
- IC50: 54 nM

SMILES: CC[C@H](C)[C@@H]1NC(=O)[C@H](CC(=O)O)NC(=O)[C@H](CC(C)C)NC(=O)[C@H](Cc2c[nH]c3ccccc23)NC(=O)[C@@H]2CCCN2[C@H](C(=O)NC(C)(C)C)[C@H](C)NC1=O [Compound 8]
- IC50: 103 nM

SMILES: CC(C)C[C@@H]1NC(=O)C[C@H](CCCCN)NC(=O)[C@H](Cc2ccccc2-c2cc(C(F)(F)F)ccc2C(F)(F)F)NC(=O)[C@@H]2CCCN2[C@H](C(=O)NC(C)(C)C)[C@H](C)NC(=O)[C@H]([C@@H](C)O)NC(=O)[C@H](CC(=O)O)NC1=O [Compound 287]
- IC50: 84 nM

SMILES: CC(C)C[C@@H]1NC(=O)[C@H](Cc2ccc(O)cc2)NC(=O)[C@@H]2CCCN2C(C(=O)NC(C)(C)C)C(CSc2ccccc2)NC(=O)[C@H]([C@@H](C)O)NC(=O)[C@H](CC(=O)O)NC1=O (some centres unmarked) [Compound 3]
- ELISA Assay Ratio b1/b7: 2.474

SMILES: CC(C)C[C@@H]1NC(=O)[C@H]2CCCCN2C(=O)[C@H](Cc2ccccc2-c2ccccc2)NC(=O)[C@@H]2CCCN2[C@H](C(=O)NC(C)(C)C)[C@H](C)NC(=O)[C@H]([C@@H](C)O)NC(=O)[C@H](CC(=O)O)NC1=O [Compound 134]
- ELISA Assay Ratio b1/b7: 7.6
- IC50: 23 nM

SMILES: CC(C)C[C@@H]1NC(=O)c2ccc(Br)c(c2)CNC(=O)[C@H](Cc2ccc(O)cc2)NC(=O)[C@@H]2CCCN2[C@H](C(=O)NC(C)(C)C)[C@H](C)NC(=O)[C@H]([C@@H](C)O)NC(=O)[C@H](CC(=O)O)NC1=O [Compound 336]
- ELISA Assay Ratio b1/b7: 5.6
- IC50: 162 nM

SMILES: CC(C)C[C@@H]1NC(=O)C[C@H](CCCCN)NC(=O)[C@H](Cc2ccccc2-c2cccnc2)NC(=O)[C@@H]2CCCN2[C@H](C(=O)NC(C)(C)C)[C@H](C)NC(=O)[C@H]([C@@H](C)O)NC(=O)[C@H](CC(=O)O)NC1=O [Compound 292]
- IC50: 30 nM

SMILES: CC(C)C[C@@H]1NC(=O)CN(C)C(=O)[C@H](Cc2cscn2)NC(=O)[C@@H]2CCCN2[C@H](C(=O)NC(C)(C)C)[C@H](C)NC(=O)[C@H]([C@@H](C)O)NC(=O)[C@H](CC(=O)O)NC1=O [Compound 164]
- IC50: 127 nM

SMILES: C=CCOc1ccc(C[C@@H]2NC(=O)[C@@H]3CCCN3[C@H](C(=O)NC(C)(C)C)[C@H](C)NC(=O)[C@H]([C@@H](C)O)NC(=O)[C@H](CC(=O)O)NC(=O)[C@H](CC(C)C)NC(=O)[C@@H](CO)NC2=O)cc1 [Compound 167]
- ELISA Assay Ratio b1/b7: 13.6
- IC50: 147 nM

SMILES: CC[C@H](C)[C@@H]1NC(=O)[C@H](CC(=O)O)NC(=O)[C@H](CC(C)C)NC(=O)C[C@H](CCCCN)NC(=O)[C@H](Cc2ccc(CN)cc2)NC(=O)[C@@H]2CCCN2[C@H](C(=O)NC(C)(C)C)[C@H](C)NC1=O [Compound 215]
- ELISA Assay Ratio b1/b7: 12.4
- IC50: 33 nM

SMILES: CC(C)C[C@@H]1NC(=O)C[C@H](CCCCN)NC(=O)[C@H](Cc2cccc(I)c2)NC(=O)[C@@H]2CCCN2[C@H](C(=O)NC(C)(C)C)[C@H](C)NC(=O)[C@H]([C@@H](C)O)NC(=O)[C@H](CC(=O)O)NC1=O [Compound 255]
- IC50: 43 nM

SMILES: CCC[C@@H]1NC(=O)[C@@H]2CCCN2[C@H](C(=O)NC(C)(C)C)[C@H](C)NC(=O)[C@H]([C@@H](C)O)NC(=O)[C@H](CC(=O)O)NC(=O)[C@H](CC(C)C)NC1=O [Compound 71]
- ELISA Assay Ratio b1/b7: 4.4
- IC50: 184 nM

SMILES: CC(C)C[C@@H]1NC(=O)C[C@H](CCCCN)NC(=O)C2(CCc3ccccc3C2)NC(=O)[C@@H]2CCCN2[C@H](C(=O)NC(C)(C)C)[C@H](C)NC(=O)[C@H]([C@@H](C)O)NC(=O)[C@H](CC(=O)O)NC1=O (some centres unmarked) [Compound 282]
- IC50: 119 nM

SMILES: CC(C)C[C@@H]1NC(=O)C[C@H](CCCCN)NC(=O)[C@H](Cc2cccc(-c3ccc(F)c(F)c3)c2)NC(=O)[C@@H]2CCCN2[C@H](C(=O)NC(C)(C)C)[C@H](C)NC(=O)[C@H]([C@@H](C)O)NC(=O)[C@H](CC(=O)O)NC1=O [Compound 267]
- IC50: 44 nM

SMILES: Cc1noc(C)c1-c1ccccc1C[C@H]1NC(=O)[C@@H]2CCCN2[C@H](C(=O)NC(C)(C)C)[C@H](C)NC(=O)[C@H]([C@@H](C)O)NC(=O)[C@H](CC(=O)O)NC(=O)[C@H](CC(C)C)NC(=O)C[C@H](CCCCN)NC1=O [Compound 276]
- ELISA Assay Ratio b1/b7: 106.2
- IC50: 134 nM

SMILES: CC(C)C[C@@H]1NC(=O)[C@@H]2C[C@@H](O)CN2C(=O)[C@@H]2CCCN2[C@H](C(=O)NC(C)(C)C)[C@H](C)NC(=O)[C@H]([C@@H](C)O)NC(=O)[C@H](CC(=O)O)NC1=O [Compound 63]
- IC50: 107 nM

SMILES: Cc1cccc(C)c1-c1ccccc1C[C@@H]1NC(=O)[C@@H]2CCCN2[C@H](C(=O)NC(C)(C)C)[C@H](C)NC(=O)[C@H]([C@@H](C)O)NC(=O)[C@H](CC(=O)O)NC(=O)[C@H](CC(C)C)NC(=O)C[C@H](CCCCN)NC1=O [Compound 272]
- ELISA Assay Ratio b1/b7: 58.1
- IC50: 41 nM

SMILES: CC[C@H](C)[C@@H]1NC(=O)[C@H](CC(=O)O)NC(=O)[C@H](CC(C)C)NC(=O)[C@H](Cc2ccc(O)cc2)NC(=O)[C@@H]2CCCN2[C@H](C(=O)NC(C)(C)C)[C@H](C)NC1=O [Compound 53]
- IC50: 182 nM

SMILES: CC(C)C[C@@H]1NC(=O)C[C@H](CCCCN)NC(=O)[C@H](Cc2ccc(CN)cc2)NC(=O)[C@@H]2CCCN2[C@H](C(=O)NC(C)(C)C)[C@H](C)NC(=O)[C@H](C(C)C)NC(=O)[C@H](CC(=O)O)NC1=O [Compound 254]
- ELISA Assay Ratio b1/b7: 33.0
- IC50: 55 nM
